{"source": "PubChem BioAssay (NCI)", "assay_in_all_cases": "NCI-60 cell line screen, 48 h", "key": {"[1]": {"tested_on": "K-562 leukemia"}, "[2]": {"tested_on": "MDA-MB-435"}, "[3]": {"tested_on": "T-47D breast"}, "[4]": {"tested_on": "CCRF-CEM leukemia"}, "[5]": {"tested_on": "A498 renal"}, "[6]": {"tested_on": "MDA-MB-231 breast"}, "[7]": {"tested_on": "NCI-H226 lung"}, "[8]": {"tested_on": "MDA-MB-468 breast"}, "[9]": {"tested_on": "OVCAR-8 ovarian"}, "[10]": {"tested_on": "RPMI-8226 leukemia"}, "[11]": {"tested_on": "NCI-H460 lung"}, "[12]": {"tested_on": "ACHN renal"}, "[13]": {"tested_on": "KM12 colon"}, "[14]": {"tested_on": "EKVX NSCLC"}, "[15]": {"tested_on": "NCI-H522 lung"}, "[16]": {"tested_on": "UO-31 renal"}, "[17]": {"tested_on": "HOP-92 NSCLC"}, "[18]": {"tested_on": "HCT-116 colon"}, "[19]": {"tested_on": "COLO 205 colon"}, "[20]": {"tested_on": "SNB-19 CNS"}, "[21]": {"tested_on": "SF-295 CNS"}, "[22]": {"tested_on": "MCF7 breast"}, "[23]": {"tested_on": "SK-MEL-5 melanoma"}, "[24]": {"tested_on": "M14 melanoma"}, "[25]": {"tested_on": "PC-3 prostate"}, "[26]": {"tested_on": "MOLT-4 leukemia"}, "[27]": {"tested_on": "UACC-62 melanoma"}, "[28]": {"tested_on": "HL-60(TB) leukemia"}, "[29]": {"tested_on": "A549 NSCLC"}}, "note": "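In this assay, cells in 96-well plates receive the compound at five concentrations for 48 hours. Endpoints are linearly interpolated between the surrounding concentrations. GI50 marks 50% less growth. TGI: concentration producing complete growth inhibition.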"}
{"smiles": "COc1ccc(-c2nc3cc(C)ccc3n2CC(=O)N=Nc2c(O)[nH]c3ccc(Br)cc23)cc1", "values": [{"measurement": "GI50", "setting": "[1]", "value": 3.66, "unit": "µM"}, {"measurement": "TGI", "setting": "[1]", "value": "> 84.5", "unit": "µM"}, {"measurement": "GI50", "setting": "[2]", "value": 2.12, "unit": "µM"}, {"measurement": "TGI", "setting": "[2]", "value": 7.52, "unit": "µM"}, {"measurement": "GI50", "setting": "[3]", "value": 2.85, "unit": "µM"}, {"measurement": "TGI", "setting": "[3]", "value": 34.6, "unit": "µM"}, {"measurement": "GI50", "setting": "[4]", "value": 3.05, "unit": "µM"}, {"measurement": "TGI", "setting": "[4]", "value": 32.1, "unit": "µM"}, {"measurement": "GI50", "setting": "[5]", "value": 24.9, "unit": "µM"}, {"measurement": "TGI", "setting": "[5]", "value": 60.1, "unit": "µM"}, {"measurement": "GI50", "setting": "[6]", "value": 2.17, "unit": "µM"}, {"measurement": "TGI", "setting": "[6]", "value": 7.97, "unit": "µM"}, {"measurement": "GI50", "setting": "[7]", "value": 1.97, "unit": "µM"}, {"measurement": "TGI", "setting": "[7]", "value": 7.23, "unit": "µM"}, {"measurement": "GI50", "setting": "[8]", "value": 1.88, "unit": "µM"}, {"measurement": "TGI", "setting": "[8]", "value": 4.41, "unit": "µM"}, {"measurement": "GI50", "setting": "[9]", "value": 1.58, "unit": "µM"}, {"measurement": "TGI", "setting": "[9]", "value": 3.49, "unit": "µM"}, {"measurement": "GI50", "setting": "[10]", "value": 2.98, "unit": "µM"}, {"measurement": "TGI", "setting": "[10]", "value": 42.2, "unit": "µM"}, {"measurement": "GI50", "setting": "[11]", "value": 1.86, "unit": "µM"}, {"measurement": "TGI", "setting": "[11]", "value": 4.1, "unit": "µM"}, {"measurement": "GI50", "setting": "[12]", "value": 2.38, "unit": "µM"}, {"measurement": "TGI", "setting": "[12]", "value": 8.75, "unit": "µM"}, {"measurement": "GI50", "setting": "[13]", "value": 2.81, "unit": "µM"}, {"measurement": "TGI", "setting": "[13]", "value": 16, "unit": "µM"}, {"measurement": "GI50", "setting": "[14]", "value": 2.1, "unit": "µM"}, {"measurement": "TGI", "setting": "[14]", "value": 11.2, "unit": "µM"}, {"measurement": "GI50", "setting": "[15]", "value": 7.39, "unit": "µM"}, {"measurement": "TGI", "setting": "[15]", "value": 31.1, "unit": "µM"}, {"measurement": "GI50", "setting": "[16]", "value": 19.4, "unit": "µM"}, {"measurement": "TGI", "setting": "[16]", "value": "> 84.5", "unit": "µM"}, {"measurement": "GI50", "setting": "[17]", "value": 1.34, "unit": "µM"}, {"measurement": "TGI", "setting": "[17]", "value": 4.59, "unit": "µM"}, {"measurement": "GI50", "setting": "[18]", "value": 1.88, "unit": "µM"}, {"measurement": "TGI", "setting": "[18]", "value": 4.49, "unit": "µM"}, {"measurement": "GI50", "setting": "[19]", "value": 2.29, "unit": "µM"}, {"measurement": "TGI", "setting": "[19]", "value": 8.06, "unit": "µM"}, {"measurement": "GI50", "setting": "[20]", "value": 3.14, "unit": "µM"}, {"measurement": "TGI", "setting": "[20]", "value": 49.6, "unit": "µM"}, {"measurement": "GI50", "setting": "[21]", "value": 2.93, "unit": "µM"}, {"measurement": "TGI", "setting": "[21]", "value": 14.2, "unit": "µM"}, {"measurement": "GI50", "setting": "[22]", "value": 2.23, "unit": "µM"}, {"measurement": "TGI", "setting": "[22]", "value": 10.2, "unit": "µM"}, {"measurement": "GI50", "setting": "[23]", "value": 2.59, "unit": "µM"}, {"measurement": "TGI", "setting": "[23]", "value": 8.3, "unit": "µM"}, {"measurement": "GI50", "setting": "[24]", "value": 1.6, "unit": "µM"}, {"measurement": "TGI", "setting": "[24]", "value": 3.49, "unit": "µM"}, {"measurement": "GI50", "setting": "[25]", "value": 2.07, "unit": "µM"}, {"measurement": "TGI", "setting": "[25]", "value": 14.5, "unit": "µM"}, {"measurement": "GI50", "setting": "[26]", "value": 3.22, "unit": "µM"}, {"measurement": "TGI", "setting": "[26]", "value": 44.5, "unit": "µM"}, {"measurement": "GI50", "setting": "[27]", "value": 1.78, "unit": "µM"}, {"measurement": "TGI", "setting": "[27]", "value": 6.09, "unit": "µM"}, {"measurement": "GI50", "setting": "[28]", "value": 5.51, "unit": "µM"}, {"measurement": "TGI", "setting": "[28]", "value": "> 84.5", "unit": "µM"}, {"measurement": "GI50", "setting": "[29]", "value": 1.75, "unit": "µM"}, {"measurement": "TGI", "setting": "[29]", "value": 3.95, "unit": "µM"}]}
